For orientation: IC50 means the concentration at which inhibition is half-maximal.

The values below come from patent US12686673B2 (Blueprint Medicines Corporation, priority 2020, dated 2026).

Holding throughout (assay type): cell-based
In assay [1] the target is EGFR(D770_N771insSVD) expressing Ba/F3 stable cell line (Homo sapiens, UniProt P00533, DUP768-770, cells depend on it). The assay can be described thus: Cellular proliferation (Alamar Blue) assay, EGFR D770_N771insSVD Ba/F3. The settings on record: 72 hr, read-out: D770 IC50. Summed up:
(§1)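 72 hr Ba/F3 viability assay; cells in RPMI/10% FBS, compound dilutions down from 10 μM final, Alamar Blue detection.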
A general note: Alamar Blue is a resazurin reagent that responds to reducing activity.

Assay [2] has as its target EGFR (A767_dupASV) expressing Ba/F3 stable cell line (Homo sapiens, UniProt P00533, DUP767-769, cells depend on it). The assay can be described thus: Cellular proliferation (Alamar Blue) assay, EGFR A767_dupASV Ba/F3. The following applies: 72 hr, read-out: A767 IC50. Summed up:
as §1

The next assay deals with A431 cells. The assay can be described thus: Cellular proliferation (Alamar Blue) assay, A431. The following applies: Homo sapiens, A-431; A431 cells, Alamar Blue, 72 hr; read-out: A431 IC50.
For assay [3], the target named is HER2 (A775_G776insYVMA) expressing Ba/F3 stable cell line (Homo sapiens, UniProt P04626, DUP772-775, cells depend on it). As to the kind of experiment: Cellular proliferation (Alamar Blue) assay, HER2 A775_G776insYVMA Ba/F3. The settings on record: 72 hr, read-out: YVMA IC50. Put shortly:
as §1

The structures appear in SMILES notation. Where a name gives a salt, the structure may show the parent alone.

Sequence of HER2 (A775_G776insYVMA) expressing Ba/F3 stable cell line (P04626 with tags, fused parts or gaps DUP772-775): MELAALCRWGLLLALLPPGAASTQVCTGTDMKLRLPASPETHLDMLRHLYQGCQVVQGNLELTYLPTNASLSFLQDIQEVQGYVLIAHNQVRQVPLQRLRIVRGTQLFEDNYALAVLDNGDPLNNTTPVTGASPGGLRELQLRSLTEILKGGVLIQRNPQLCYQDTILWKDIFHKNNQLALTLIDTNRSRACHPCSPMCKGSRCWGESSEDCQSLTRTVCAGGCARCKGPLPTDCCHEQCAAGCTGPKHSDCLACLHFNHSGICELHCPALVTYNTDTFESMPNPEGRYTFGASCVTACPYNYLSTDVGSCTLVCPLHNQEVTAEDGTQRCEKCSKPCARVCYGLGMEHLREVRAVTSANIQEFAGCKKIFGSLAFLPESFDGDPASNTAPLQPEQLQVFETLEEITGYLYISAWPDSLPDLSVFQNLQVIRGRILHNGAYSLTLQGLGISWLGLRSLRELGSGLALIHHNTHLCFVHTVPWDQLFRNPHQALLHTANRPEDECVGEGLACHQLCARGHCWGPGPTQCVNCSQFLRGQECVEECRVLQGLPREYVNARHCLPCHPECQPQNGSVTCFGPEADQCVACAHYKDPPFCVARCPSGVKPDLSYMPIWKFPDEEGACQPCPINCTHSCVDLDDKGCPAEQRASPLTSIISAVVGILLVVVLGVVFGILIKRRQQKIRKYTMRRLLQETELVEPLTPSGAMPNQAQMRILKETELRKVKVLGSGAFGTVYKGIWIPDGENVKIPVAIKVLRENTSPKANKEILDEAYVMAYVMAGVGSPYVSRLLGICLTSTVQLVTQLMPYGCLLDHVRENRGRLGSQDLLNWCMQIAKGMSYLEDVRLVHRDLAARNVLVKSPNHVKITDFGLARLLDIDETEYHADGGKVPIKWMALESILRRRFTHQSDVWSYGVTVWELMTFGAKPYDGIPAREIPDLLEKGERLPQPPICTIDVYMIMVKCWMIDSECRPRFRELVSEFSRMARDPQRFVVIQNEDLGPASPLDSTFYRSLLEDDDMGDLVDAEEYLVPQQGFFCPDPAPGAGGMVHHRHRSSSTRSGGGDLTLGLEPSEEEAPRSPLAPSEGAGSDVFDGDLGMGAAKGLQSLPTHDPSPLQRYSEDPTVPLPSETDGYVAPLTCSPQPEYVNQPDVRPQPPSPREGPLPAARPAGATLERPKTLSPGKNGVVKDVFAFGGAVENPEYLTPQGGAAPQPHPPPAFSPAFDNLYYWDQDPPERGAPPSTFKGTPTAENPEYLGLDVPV
Sequence of EGFR(D770_N771insSVD) expressing Ba/F3 stable cell line (P00533 with tags, fused parts or gaps DUP768-770): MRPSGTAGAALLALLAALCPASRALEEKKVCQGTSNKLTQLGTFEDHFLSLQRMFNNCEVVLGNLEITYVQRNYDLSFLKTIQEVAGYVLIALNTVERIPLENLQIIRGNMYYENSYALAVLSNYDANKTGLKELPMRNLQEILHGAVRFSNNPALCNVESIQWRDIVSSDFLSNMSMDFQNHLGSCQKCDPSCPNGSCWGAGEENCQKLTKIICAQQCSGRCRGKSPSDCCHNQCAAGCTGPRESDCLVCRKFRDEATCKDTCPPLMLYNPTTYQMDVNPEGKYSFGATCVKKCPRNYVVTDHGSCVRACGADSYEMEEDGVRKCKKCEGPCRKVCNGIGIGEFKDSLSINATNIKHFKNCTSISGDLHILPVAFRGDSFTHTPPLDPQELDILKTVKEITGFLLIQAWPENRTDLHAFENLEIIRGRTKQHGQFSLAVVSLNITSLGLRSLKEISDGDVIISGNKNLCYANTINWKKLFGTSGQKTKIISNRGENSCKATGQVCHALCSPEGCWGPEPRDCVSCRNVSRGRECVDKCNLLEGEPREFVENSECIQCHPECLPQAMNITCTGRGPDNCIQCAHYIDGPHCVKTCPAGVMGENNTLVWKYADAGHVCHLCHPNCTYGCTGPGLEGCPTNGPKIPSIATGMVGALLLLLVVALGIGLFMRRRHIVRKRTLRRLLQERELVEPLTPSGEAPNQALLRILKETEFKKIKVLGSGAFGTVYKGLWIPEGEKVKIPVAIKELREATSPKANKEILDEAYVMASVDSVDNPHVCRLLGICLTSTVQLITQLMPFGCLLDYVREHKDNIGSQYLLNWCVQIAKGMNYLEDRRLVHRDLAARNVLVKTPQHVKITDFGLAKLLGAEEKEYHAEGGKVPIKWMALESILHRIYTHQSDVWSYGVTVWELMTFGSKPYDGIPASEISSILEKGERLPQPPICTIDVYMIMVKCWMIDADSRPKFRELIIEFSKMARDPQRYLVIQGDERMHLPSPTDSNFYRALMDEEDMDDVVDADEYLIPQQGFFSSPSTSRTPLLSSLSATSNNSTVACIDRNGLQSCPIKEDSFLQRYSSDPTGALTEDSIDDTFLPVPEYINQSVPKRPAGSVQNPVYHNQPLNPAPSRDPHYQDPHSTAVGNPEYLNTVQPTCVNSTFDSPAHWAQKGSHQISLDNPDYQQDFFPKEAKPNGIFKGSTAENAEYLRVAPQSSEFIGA
Sequence of EGFR (A767_dupASV) expressing Ba/F3 stable cell line (P00533 with tags, fused parts or gaps DUP767-769): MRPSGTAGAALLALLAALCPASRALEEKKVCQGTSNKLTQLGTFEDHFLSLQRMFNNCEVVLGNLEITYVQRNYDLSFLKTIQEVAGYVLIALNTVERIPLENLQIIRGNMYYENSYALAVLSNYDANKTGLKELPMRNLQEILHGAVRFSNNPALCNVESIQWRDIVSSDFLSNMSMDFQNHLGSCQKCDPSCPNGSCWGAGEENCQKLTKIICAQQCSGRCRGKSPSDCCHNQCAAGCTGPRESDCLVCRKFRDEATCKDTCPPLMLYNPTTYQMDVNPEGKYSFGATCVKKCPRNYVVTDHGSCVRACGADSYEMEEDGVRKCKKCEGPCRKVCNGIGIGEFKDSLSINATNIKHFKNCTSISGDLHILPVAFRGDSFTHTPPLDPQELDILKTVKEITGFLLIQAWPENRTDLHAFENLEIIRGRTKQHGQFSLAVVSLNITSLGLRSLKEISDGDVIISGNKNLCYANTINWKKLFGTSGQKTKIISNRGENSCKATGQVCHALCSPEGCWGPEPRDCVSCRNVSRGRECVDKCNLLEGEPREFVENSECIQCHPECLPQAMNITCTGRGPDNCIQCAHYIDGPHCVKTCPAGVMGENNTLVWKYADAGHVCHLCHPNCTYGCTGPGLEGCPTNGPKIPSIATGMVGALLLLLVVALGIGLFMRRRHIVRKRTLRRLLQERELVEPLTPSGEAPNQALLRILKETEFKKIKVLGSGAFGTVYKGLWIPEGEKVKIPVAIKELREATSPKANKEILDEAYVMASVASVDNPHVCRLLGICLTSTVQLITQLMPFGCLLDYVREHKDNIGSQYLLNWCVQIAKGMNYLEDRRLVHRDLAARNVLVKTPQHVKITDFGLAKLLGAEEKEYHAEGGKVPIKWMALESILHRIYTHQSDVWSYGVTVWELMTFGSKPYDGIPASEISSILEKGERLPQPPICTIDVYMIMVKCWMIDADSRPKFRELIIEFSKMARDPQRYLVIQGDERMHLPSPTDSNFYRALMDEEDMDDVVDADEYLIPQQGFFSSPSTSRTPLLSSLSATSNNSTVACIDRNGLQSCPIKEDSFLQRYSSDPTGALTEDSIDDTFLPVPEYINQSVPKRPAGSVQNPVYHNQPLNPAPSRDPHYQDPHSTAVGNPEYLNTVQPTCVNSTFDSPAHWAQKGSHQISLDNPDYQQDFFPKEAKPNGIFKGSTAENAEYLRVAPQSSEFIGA

Consider `C=CC(=O)Nc1ccc(F)c(Nc2nc(Nc3cnn(C)c3)ncc2-c2ccc3[nH]ccc3c2)c1` [Compound 97, N-(4-fluoro-3-{[5-(1H-indol-5-yl)-2-[(1-methyl-1H-pyrazol-4-yl)amino]pyrimidin-4-yl]amino}phenyl)prop-2-enamide], for which the GI50 amounted to 546 nM in assay [1], 862 nM in assay [2] and 403 nM in assay [3]. Moreover, the IC50 with A431 cells is 586 nM.

In the case of `C=CC(=O)Nc1ccc(F)c(Nc2nc(Nc3cnn(C)c3)ncc2-c2ccc(-c3ccccc3)cc2)c1` [Compound 127, N-(3-((5-([1,1′-biphenyl]-4-yl)-2-((1-methyl-1H-pyrazol-4-yl)amino)pyrimidin-4-yl)amino)-4-fluorophenyl)acrylamide], the GI50 is 971 nM in assay [1], 565 nM in assay [2] and 5280 nM in assay [3]. Besides, the 50% inhibitory concentration (IC50) in the assay on A431 cells was 258 nM.

In the case of `C=CC(=O)Nc1ccc(F)c(Nc2nc(Nc3cnn(C)c3)ncc2-c2ccc(C3CC3)cc2)c1` [Compound 128, N-(3-((5-(4-cyclopropylphenyl)-2-((1-methyl-1H-pyrazol-4-yl)amino)pyrimidin-4-yl)amino)-4-fluorophenyl)acrylamide trifluoroacetate], the GI50 in assay [1] was found to be 101 nM; in assay [2] it was 114 nM; in assay [3], 654 nM. Also, the IC50 in the assay on A431 cells came out at 64 nM.

With `C=CC(=O)Nc1ccc(F)c(Nc2nc(Nc3cnn(C)c3)ncc2-c2ccc(CC(F)(F)F)cc2)c1` [Compound 130, N-(4-fluoro-3-((2-((1-methyl-1H-pyrazol-4-yl)amino)-5-(4-(2,2,2-trifluoroethyl)phenyl)pyrimidin-4-yl)amino)phenyl)acrylamide trifluoroacetate], the GI50 in assay [1] was found to be 26 nM; in assay [2], 27 nM; in assay [3] it was 83 nM. Also, in the assay with A431 cells, the 50% inhibitory concentration (IC50) is 8 nM.

As to `C=CC(=O)Nc1ccc(F)c(Nc2nc(Nc3cnn(C)c3)ncc2-c2ccc3cccnc3c2)c1` [Compound 131, N-(4-fluoro-3-((2-((1-methyl-1H-pyrazol-4-yl)amino)-5-(quinolin-7-yl)pyrimidin-4-yl)amino)phenyl)acrylamide], the results for the GI50 in assay [1], in assay [2] and in assay [3] were 202 nM, 758 nM and 348 nM, respectively. The IC50 in the assay with A431 cells is 365 nM.

Consider `C=CC(=O)Nc1ccc(F)c(Nc2nc(Nc3cnn(C)c3)ncc2-c2ccn3ccnc3c2)c1` [Compound 132, N-(4-fluoro-3-((5-(imidazo[1,2-a]pyridin-7-yl)-2-((1-methyl-1H-pyrazol-4-yl)amino)pyrimidin-4-yl)amino)phenyl)acrylamide], for which the results for the GI50 in assay [1], in assay [2] and in assay [3] were 203 nM, 368 nM and 151 nM, respectively. Moreover, in the assay with A431 cells, the IC50 worked out at 504 nM.

For `C=CC(=O)Nc1ccc(F)c(Nc2nc(Nc3cnn(C)c3)ncc2-c2cccc3ccccc23)c1` [Compound 136, N-(4-fluoro-3-((2-((1-methyl-1H-pyrazol-4-yl)amino)-5-(naphthalen-1-yl)pyrimidin-4-yl)amino)phenyl)acrylamide trifluoroacetate], the GI50 was determined as 106 nM in assay [1], 299 nM in assay [2] and 412 nM in assay [3]. Also, the IC50 in the assay with A431 cells is 40 nM.

With `C=CC(=O)Nc1ccc(F)c(Nc2nc(Nc3cnn(C)c3)ncc2-c2ccncc2)c1` [Compound 137, N-(4-fluoro-3-((2-((1-methyl-1H-pyrazol-4-yl)amino)-5-(pyridin-4-yl)pyrimidin-4-yl)amino)phenyl)acrylamide], the GI50 in assay [1] was 254 nM; in assay [2], 325 nM; in assay [3] it was 751 nM. For the same compound, the IC50 in the assay with A431 cells is above 10000 nM.

For the compound `C=CC(=O)Nc1ccc(F)c(Nc2nc(Nc3cn(C)nc3C(F)(F)F)ncc2-c2ccc(C(F)(F)F)cc2)c1` [Compound 146, N-(4-fluoro-3-((2-((1-methyl-3-(trifluoromethyl)-1H-pyrazol-4-yl)amino)-5-(4-(trifluoromethyl)phenyl)pyrimidin-4-yl)amino)phenyl)acrylamide trifluoroacetate], the results for the GI50 in assay [1], in assay [2] and in assay [3] were 342 nM, 279 nM and 6130 nM, respectively. Also, the IC50 with A431 cells came to 274 nM.

For `C=CC(=O)Nc1ccc(F)c(Nc2nc(Nc3cnn(C)c3)ncc2-c2ccc3ccccc3c2)c1` [Compound 149, N-(4-fluoro-3-((2-((1-methyl-1H-pyrazol-4-yl)amino)-5-(naphthalen-2-yl)pyrimidin-4-yl)amino)phenyl)acrylamide trifluoroacetate], the figures for the GI50 in assay [1], in assay [2] and in assay [3] were 308 nM, 747 nM and 501 nM, respectively. The IC50 in the assay with A431 cells came to 469 nM.

Take `C=CC(=O)Nc1cccc(Nc2nc(Nc3cnn(C)c3)nnc2Cl)c1` [Compound 156, N-(3-((6-chloro-3-((1-methyl-1H-pyrazol-4-yl)amino)-1,2,4-triazin-5-yl)amino)phenyl)acrylamide]: the GI50 stood at 1890 nM in assay [1], 2440 nM in assay [2] and 1520 nM in assay [3]. In the assay on A431 cells, the IC50 worked out at 8020 nM.

As for `C=CC(=O)Nc1cccc(Oc2nc(Nc3cnn(C)c3)nnc2Cl)c1` [Compound 157, N-(3-((6-chloro-3-((1-methyl-1H-pyrazol-4-yl)amino)-1,2,4-triazin-5-yl)oxy)phenyl)acrylamide], the results for the GI50 in assay [1], in assay [2] and in assay [3] were above 10000 nM, above 10000 nM and 3660 nM, respectively. Moreover, the IC50 in the assay on A431 cells was above 10000 nM.

Consider `C=CC(=O)Nc1cccc(Oc2nc(Nc3cnn(C)c3)cnc2C)c1` [Compound 158, N-(3-((3-methyl-6-((1-methyl-1H-pyrazol-4-yl)amino)pyrazin-2-yl)oxy)phenyl)acrylamide], for which the GI50 in assay [1], in assay [2] and in assay [3] was above 10000 nM throughout. In the assay on A431 cells, the 50% inhibitory concentration (IC50) is above 10000 nM.

As to `C=CC(=O)Nc1ccc(F)c(-c2nc(Nc3cnn(C)c3)ncc2Cl)c1` [Compound 159, N-(3-{5-chloro-2-[(1-methyl-1H-pyrazol-4-yl)amino]pyrimidin-4-yl}-4-fluorophenyl)prop-2-enamide], the GI50 in assay [1] is 9550 nM; in assay [2] it was 2780 nM; in assay [3], above 10000 nM. In the assay on A431 cells, the IC50 is above 10000 nM.

Take `CN(C)C/C=C/C(=O)Nc1ccc(F)c(-c2nc(Nc3cnn(C)c3)ncc2Cl)c1` [Compound 160, (E)-N-(3-(5-chloro-2-((1-methyl-1H-pyrazol-4-yl)amino)pyrimidin-4-yl)-4-fluorophenyl)-4-(dimethylamino)but-2-enamide]: the GI50 in assay [1], in assay [2] and in assay [3] was above 10000 nM in each case. The IC50 in the assay with A431 cells was above 10000 nM.

Turning to `C=CC(=O)Nc1ccc(F)c(Nc2nc(Nc3cnn(C)c3)ncc2C#Cc2ccccc2)c1` [Compound 161, N-[4-fluoro-3-({2-[(1-methyl-1H-pyrazol-4-yl)amino]-5-(2-phenylethynyl)pyrimidin-4-yl}amino)phenyl]prop-2-enamide], the GI50 was 288 nM in assay [1], 289 nM in assay [2] and 897 nM in assay [3]. Further, the IC50 in the assay with A431 cells is above 10000 nM.

As to `CN(C)C/C=C/C(=O)Nc1ccc(F)c(Nc2nc(Nc3cnn(C)c3)ncc2C#Cc2ccccc2)c1` [Compound 162, (E)-4-(dimethylamino)-N-(4-fluoro-3-((2-((1-methyl-1H-pyrazol-4-yl)amino)-5-(phenylethynyl)pyrimidin-4-yl)amino)phenyl)but-2-enamide], the values for the GI50 in assay [1], in assay [2] and in assay [3] were 1850 nM, 656 nM and 1880 nM, respectively. The IC50 in the assay on A431 cells amounted to 2850 nM.

Take `C=CC(=O)Nc1ccc(C(=O)Nc2ccccc2)c(Nc2ccnc(Nc3cnn(C)c3)n2)c1` [Compound 164, 4-acrylamido-2-((2-((1-methyl-1H-pyrazol-4-yl)amino)pyrimidin-4-yl)amino)-N-phenylbenzamide]: the GI50 in assay [1] is above 10000 nM; in assay [2] it was above 10000 nM; in assay [3], 9490 nM. Moreover, in the assay with A431 cells, the IC50 was above 10000 nM.

For `C=CC(=O)Nc1ccc(Cl)c(Nc2ccnc(Nc3cnn(C)c3)n2)c1` [Compound 165, N4-(5-amino-2-chlorophenyl)-N2-(1-methyl-1H-pyrazol-4-yl)pyrimidine-2,4-diamineprop-2-enoyl chloride], the results for the GI50 in assay [1], in assay [2] and in assay [3] were above 10000 nM, above 10000 nM and 9930 nM, respectively. Further, in the assay with A431 cells, the IC50 is above 10000 nM.

Take `C=CC(=O)Nc1ccc(F)c(Oc2nc(Nc3cnn(C)c3)ncc2Cl)c1` [Compound 166, N-(3-((5-chloro-2-((1-methyl-1H-pyrazol-4-yl)amino)pyrimidin-4-yl)oxy)-4-fluorophenyl)acrylamide]: the values for the GI50 in assay [1], in assay [2] and in assay [3] were 1320 nM, 1250 nM and 1690 nM, respectively. Also, the IC50 in the assay on A431 cells was above 10000 nM.

`C=CC(=O)Nc1ccc(F)c(Oc2nc(Nc3cnn(CCO)c3)ncc2Cl)c1` [Compound 167, N-(3-((5-chloro-2-((1-(2-hydroxyethyl)-1H-pyrazol-4-yl)amino)pyrimidin-4-yl)oxy)-4-fluorophenyl)acrylamide]: the GI50 in assay [1] amounted to 2150 nM; in assay [2] it was 1330 nM; in assay [3], 1750 nM. For the same compound, the IC50 in the assay on A431 cells was above 10000 nM.

For `C=CC(=O)Nc1ccc(F)c(Oc2nc(Nc3cnn(C4CCN(C)CC4)c3)ncc2Cl)c1` [Compound 168, N-(3-((5-chloro-2-((1-(1-methylpiperidin-4-yl)-1H-pyrazol-4-yl)amino)pyrimidin-4-yl)oxy)-4-fluorophenyl)acrylamide], the GI50 worked out at 929 nM in assay [1], 904 nM in assay [2] and 2260 nM in assay [3]. In the assay on A431 cells, the IC50 is above 10000 nM.
